The nature of one data set: in vitro. As to conditions: human.
Data set [1] has as its system MRC-5 non-malignant lung fibroblasts. Kind of data set: Cytotoxicity CCK-8 assay, MRC-5 (selectivity). Particulars: in vitro, CCK-8.
Text: (§1) The cytotoxicity of the new α-aminophosphine oxide and phosphonate acetals 4 and 5, β-keto-α-aminophosphonate 6, aziridines 7, 10 and 14, and allylic α-aminophosphine oxides and phosphonates 8, 9, 11, 12, 15 and 16 was investigated in vitro by checking their antiproliferative activities against the human cancer cell line A549 (carcinomic human alveolar basal epithelial cells). […] In order to assess growth inhibition, cell counting kit (CCK-8) assay was employed. […] Likewise, healthy lung cells, such as MRC-5 non-malignant lung fibroblasts were tested to study the selectivity of the cytotoxicity [49].
(§2) All stock solutions of the investigated compounds were prepared by dissolving the powered materials in appropriate amounts of DMSO. The final concentration of DMSO never exceeded 5% (v/v) in reactions. The stock solution was stored at 5 °C until it was used.
(§3) Cells were cultured according to the supplier’s instructions. […] On day 2, compounds were added and samples were incubated for 48 h. […] The absorbance of each well was determined by an Automatic ELISA Reader System (Multiskan FC, Thermo Fisher Scientific, Waltham, MA, USA) at 450 nm wavelength.
Data set [2] deals with Human colon carcinoma cell line (RKO). Nature of the data set: Cytotoxicity (antiproliferative) CCK-8 assay, RKO. Particulars: Homo sapiens, Colon carcinoma cell, 48 h, read-out: cytotoxicity value against human colon carcinoma cell line (RKO).
Experimental: Human colon carcinoma cell line (RKO) was also used to test the antiproliferative activity of some of our compounds. In order to assess growth inhibition, cell counting kit (CCK-8) assay was employed.
as §2
Cells were cultured according to the supplier’s instructions. Cells were seeded in 96-well plates at a density of 2–4 × 10^3 cells per well and incubated overnight in 0.1 mL of media supplied with 10% Fetal Bovine Serum (Lonza) in 5% CO2 incubator at 37 °C. On day 2, compounds were added and samples were incubated for 48 h. After treatment, 10 μL of cell counting kit-8 was added into each well for additional 2 h incubation at 37 °C. The absorbance of each well was determined by an Automatic ELISA Reader System (Multiskan FC, Thermo Fisher Scientific, Waltham, MA, USA) at 450 nm wavelength.
Data set [3] deals with human cancer cell line A549 (carcinomic human alveolar basal epithelial cells). Kind of data set: Cytotoxicity (antiproliferative) CCK-8 assay, A549. Particulars: Homo sapiens, A549, 48 h, read-out: Cytotoxicity IC50 Lung A549.
Text: as §1, §2, §3

Text for in vitro: as §1, §2, §3

For `O=P(c1ccccc1)(c1ccccc1)[C@@H]1N[C@]1(Sc1ccccc1)c1ccccc1` (relative stereo) [Compound 14c, Diphenyl [(2S*,3S*)-3-phenyl-3-(phenylthio)aziridin-2-yl]phosphine oxide], in “in vitro”, the IC50 at 48 h worked out at 4.9 ± 0.49 µM. Besides, the “toxicity toward MRC-5 cell line (in words)” value in data set [1] is reported as “good cytotoxicity”. Besides, the results for the IC50 in data set [2] and in data set [3] were 9.7 µM and 1.1 ± 0.32 µM, respectively.

The values are drawn from PMC7435673, “Synthesis of α-Aminophosphonic Acid Derivatives Through the Addition of O- and S-Nucleophiles to 2H-Azirines and Their Antiproliferative Effect on A549 Human Lung Adenocarcinoma Cells” (Molecules, 2020).
